Test results as given in ChEMBL document CHEMBL1159352, “Reaction of irofulven with zinc and acid” (J Nat Prod, 2003).

Each compound was assayed on HL-60 (assay: Cytotoxicity against human HL60 cells after 48 hrs by trypan blue exclusion assay). Conditions: HL-60, 48 h.
Format: functional, cell-based

SMILES	IC50 [µM]
C=C1C(C)=Cc2c(O)c(C)c(CCOC(C)=O)c(C)c21	110
CC1=C2C(=C[C@@](C)(CO)[C@@H]2O)C(=O)[C@](C)(O)C12CC2 [ILLUDIN]	0.003
CC1=C(CO)c2c(C)c(CCO)c(C)c(O)c2C1O (stereo not given)	114
CC1=C(CO)c2c(C)c(CCO)c(C)c(O)c2C1	120
C=C1C(C)=Cc2c(O)c(C)c(CCO)c(C)c21	130
